Data set [1] has as its system IFNα/β mRNA. The data set is classed as cell-based.
Data set [2] deals with influenza virus. In kind it is cell-based.
Data set [3] in a line: in vitro. The settings on record: African green monkey.
A short description of data set [4]: in vitro. The settings on record: human.
For data set [5] the following is noted: rat, in vivo, 10 mg/kg; cited from earlier work.

For `O=C(O[C@@H]1[C@@H](O)[C@H](Oc2cc(O)c(C(=O)CCc3ccccc3)c(O)c2)O[C@@H]2COC(=O)c3cc(O)c(O)c(O)c3-c3c(cc(O)c(O)c3O)C(=O)O[C@@H]12)c1cc(O)c(O)c(O)c1` [Compound 46, Thonningianin A], the “effect on IFNα/β mRNA expression levels” value in data set [1] is “did not significantly affect”. Besides, the “effect on influenza virus replication” value in data set [2] is given as “did not significantly affect”. In addition, the CC50 was determined as 10.6 µM in data set [3] and 20.2 µM in data set [4]. Also, the t₁/₂ in data set [5] is reported as 3.69 h.

The record behind these values is article PMC11966994 (Emerging Microbes & Infections, 2025).
